Measured values from patent US10035789B2, “Compounds useful for treating disorders related to RET” (BLUEPRINT MEDICINES CORPORATION, priority 2016, dated 2018).

Key:
wild type RET = target: T1, wild type RET (Homo sapiens, UniProt P07949); assay: RET Wild Type Assay at KM (Caliper electrophoretic mobility shift); assay type: biochemical; settings: 25 μM ATP, 25° C., 120 minutes
T1 construct: purchased ProQinase 1090-0000-1

RET V804L = target: T2, RET V804L (Homo sapiens, UniProt P07949, V804L); assay: RET V804L Gatekeeper Mutant Assay at KM (Caliper electrophoretic mobility shift); assay type: biochemical; settings: 10 μM ATP, 25° C., 120 minutes
T2 construct: purchased ProQinase 1096-0000-1
T2 sequence (P07949 29-1114 V804L): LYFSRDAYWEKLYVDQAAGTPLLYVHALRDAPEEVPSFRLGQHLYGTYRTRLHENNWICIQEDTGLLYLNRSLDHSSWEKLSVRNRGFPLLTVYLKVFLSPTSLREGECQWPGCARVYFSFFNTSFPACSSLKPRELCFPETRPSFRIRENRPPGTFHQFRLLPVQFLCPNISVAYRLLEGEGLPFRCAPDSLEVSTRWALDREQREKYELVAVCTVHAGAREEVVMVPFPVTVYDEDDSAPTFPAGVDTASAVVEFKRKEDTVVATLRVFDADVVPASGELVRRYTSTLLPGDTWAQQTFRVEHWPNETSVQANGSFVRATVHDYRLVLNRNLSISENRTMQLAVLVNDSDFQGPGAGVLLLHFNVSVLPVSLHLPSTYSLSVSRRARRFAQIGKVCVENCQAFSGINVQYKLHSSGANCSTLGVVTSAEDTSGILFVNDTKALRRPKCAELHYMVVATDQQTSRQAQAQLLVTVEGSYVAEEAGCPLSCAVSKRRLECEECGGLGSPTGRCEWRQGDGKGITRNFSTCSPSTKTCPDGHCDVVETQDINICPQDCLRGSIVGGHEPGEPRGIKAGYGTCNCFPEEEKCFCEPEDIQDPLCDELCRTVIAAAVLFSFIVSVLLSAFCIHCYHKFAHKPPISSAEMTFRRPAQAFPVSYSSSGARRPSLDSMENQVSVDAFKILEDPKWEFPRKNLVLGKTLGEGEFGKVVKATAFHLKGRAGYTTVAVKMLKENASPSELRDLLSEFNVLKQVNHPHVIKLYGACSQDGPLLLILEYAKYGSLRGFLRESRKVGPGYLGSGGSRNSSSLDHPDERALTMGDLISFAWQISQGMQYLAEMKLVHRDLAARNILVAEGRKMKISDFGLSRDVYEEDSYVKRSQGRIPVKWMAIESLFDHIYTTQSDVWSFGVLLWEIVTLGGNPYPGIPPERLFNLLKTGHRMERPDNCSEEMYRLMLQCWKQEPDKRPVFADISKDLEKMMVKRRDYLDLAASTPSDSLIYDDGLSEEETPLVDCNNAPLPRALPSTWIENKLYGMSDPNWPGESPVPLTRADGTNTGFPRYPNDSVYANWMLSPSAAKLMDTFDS

T1 sequence (P07949 29-1114): as the sequence (P07949 29-1114 V804L) above, with L776V counted along it

| IC50 (wild type RET) | IC50 (RET V804L) | SMILES |
| --- | --- | --- |
| 10 to 100 nM | < 10 nM | Cc1cc(Nc2cc(C3CC3)[nH]n2)nc([C@@]2(O)CC[C@H](C(=O)NCc3ccccc3)C2)c1 [Compound 100] |
| 10 to 100 nM | 10 to 100 nM | Cc1cc(Nc2cc(C)[nH]n2)nc([C@H]2CC[C@@](C)(C(=O)N[C@@H](C)c3ccc(-n4cc(F)cn4)nc3)C2)n1 [Compound 113] |
| 10 to 100 nM | 10 to 100 nM | Cc1cc(Nc2cc(C)[nH]n2)nc([C@]2(O)CC[C@H](C(=O)N[C@@H](C)c3ccc(-n4cc(F)cn4)nc3)C2)c1 [Compound 120] |
| 10 to 100 nM | < 10 nM | Cc1cc(Nc2cc(C)[nH]n2)nc([C@@]2(O)CC[C@@H](C(=O)NCc3ccc(-n4cccn4)nc3)C2)c1 [Compound 101] |
| < 10 nM | < 10 nM | CCOc1ccc(CNC(=O)C2CC[C@](O)(c3cc(C)cc(Nc4cc(C5CC5)[nH]n4)n3)C2)cc1 (stereo partly shown) [Compound 105] |
| < 10 nM |  | Cc1cc(Nc2cc(C)[nH]n2)nc([C@@H]2CC[C@@](C)(C(=O)N[C@@H](C)c3ccc(-n4cc(F)cn4)nc3)C2)n1 [Compound 115] |
| < 10 nM | < 10 nM | Cc1cc(Nc2cc(C)[nH]n2)nc(C2(O)CCC(C(=O)N[C@@H](C)c3ccc(-n4cc(F)cn4)nc3)C2)c1 (stereo partly shown) [Compound 118] |
| < 10 nM | < 10 nM | Cc1cc(Nc2cc(C)[nH]n2)nc([C@H]2CC[C@H](C(=O)N[C@@H](C)c3ccc(-n4cc(F)cn4)nc3)C2)n1 (single isomer, unassigned) [Compound 110] |
| 10 to 100 nM | < 10 nM | Cc1cc(Nc2cc(C)[nH]n2)nc([C@@]2(O)CC[C@H](C(=O)NCc3ccc(-n4cccn4)nc3)C2)c1 [Compound 104] |
| 10 to 100 nM | 10 to 100 nM | Cc1cc(Nc2cc(C)[nH]n2)nc([C@]2(O)CC[C@H](C(=O)NCc3ccc(-n4cccn4)nc3)C2)c1 [Compound 102] |
| < 10 nM | < 10 nM | Cc1cc(Nc2cc(C)[nH]n2)nc([C@@]2(O)CC[C@@H](C(=O)N[C@@H](C)c3ccc(-n4cc(F)cn4)nc3)C2)c1 [Compound 119] |
| < 10 nM | < 10 nM | Cc1cc(Nc2cc(C)[nH]n2)nc(C2(O)CCC(C(=O)NCc3ccc(-n4cc(Cl)cn4)nc3)C2)c1 (mixture of isomers) [Compound 126] |
| < 10 nM | < 10 nM | Cc1cc(Nc2cc(C)[nH]n2)nc([C@]2(O)CC[C@@](C)(C(=O)N[C@@H](C)c3ccc(-n4cc(F)cn4)nc3)C2)c1 [Compound 128] |
| > 100 nM | 10 to 100 nM | Cc1cc(Nc2cc(C)[nH]n2)nc([C@@H]2CC[C@](C)(C(=O)N[C@@H](C)c3ccc(-n4cc(F)cn4)nc3)C2)n1 [Compound 112] |
| 10 to 100 nM | < 10 nM | Cc1cc(Nc2cc(C)[nH]n2)nc([C@]2(O)CC[C@@H](C(=O)N[C@@H](C)c3cnc(-n4cc(F)cn4)cn3)C2)c1 [Compound 125] |
| < 10 nM | < 10 nM | Cc1cc(Nc2cc(C)[nH]n2)nc([C@H]2CC[C@](C)(C(=O)N[C@@H](C)c3ccc(-n4cc(F)cn4)nc3)C2)n1 [Compound 114] |
| < 10 nM | < 10 nM | Cc1cc([C@@H]2CC[C@](C)(C(=O)N[C@@H](C)c3ccc(-n4cc(F)cn4)nc3)C2)nc(Nc2cc(C)[nH]n2)n1 (single isomer, unassigned) [Compound 117, (1R,3R or 1S,3S)—N—((S)-1-(6-(4-fluoro-1H-pyrazol-1-yl)pyridin-3-yl)ethyl)-1-methyl-3-(6-methyl-2-((5-methyl-1H-pyrazol-3-yl)amino)pyrimidin-4-yl)cyclopentane-1-carboxamide] |
| < 10 nM |  | Cc1cc(Nc2cc(C)[nH]n2)nc([C@]2(O)CC[C@@H](C(=O)N[C@@H](C)c3ccc(-n4cc(F)cn4)nc3)C2)c1 (single isomer, unassigned) [Compound 121] |
| < 10 nM | < 10 nM | Cc1cc(Nc2cc(C)[nH]n2)nc(C2CCC(C(=O)N[C@@H](C)c3ccc(-n4cc(F)cn4)nc3)C2)n1 (mixture of isomers) [Compound 106, N—((S)-1-(6-(4-fluoro-1H-pyrazol-1-yl)pyridin-3-yl)ethyl)-3-(4-methyl-6-((5-methyl-1H-pyrazol-3-yl)amino)pyrimidin-2-yl)cyclopentane-1-carboxamide] |
| < 10 nM | < 10 nM | Cc1cc(Nc2cc(C)[nH]n2)nc([C@@]2(O)CC[C@H](C(=O)N[C@@H](C)c3ccc(-n4cc(F)cn4)nc3)C2)c1 (single isomer, unassigned) [Compound 122] |
| 10 to 100 nM | 10 to 100 nM | Cc1cc(Nc2cc(C)[nH]n2)nc([C@@H]2CC[C@H](C(=O)N[C@@H](C)c3ccc(-n4cc(F)cn4)nc3)C2)n1 (single isomer, unassigned) [Compound 107] |
| < 10 nM | < 10 nM | Cc1cc(Nc2cc(C)[nH]n2)nc([C@@]2(O)CC[C@](C)(C(=O)N[C@@H](C)c3ccc(-n4cc(F)cn4)nc3)C2)c1 [Compound 129] |
| < 10 nM | < 10 nM | Cc1cc(Nc2cc(C)[nH]n2)nc(C2(O)CCC(C(=O)N[C@@H](C)c3cnc(-n4cc(F)cn4)cn3)C2)c1 (mixture of isomers) [Compound 123] |
| < 10 nM | < 10 nM | Cc1cc(Nc2cc(C)[nH]n2)nc([C@@]2(O)CC[C@H](C(=O)N[C@@H](C)c3cnc(-n4cc(F)cn4)cn3)C2)c1 [Compound 124] |
| < 10 nM | < 10 nM | Cc1cc(Nc2cc(C)[nH]n2)nc(C2(O)CCC(C(=O)NCc3ccc(-n4nc(C)cc4C)nc3)C2)c1 (mixture of isomers) [Compound 111] |
| 10 to 100 nM | 10 to 100 nM | Cc1cc(Nc2cc(C)[nH]n2)nc([C@H]2CC[C@@H](C(=O)N[C@@H](C)c3ccc(-n4cc(F)cn4)nc3)C2)n1 (single isomer, unassigned) [Compound 108] |
| < 10 nM | < 10 nM | Cc1cc(Nc2cc(C)[nH]n2)nc([C@@H]2CC[C@@H](C(=O)N[C@@H](C)c3ccc(-n4cc(F)cn4)nc3)C2)n1 (single isomer, unassigned) [Compound 109] |
| < 10 nM | < 10 nM | Cc1cc(Nc2cc(C)[nH]n2)nc([C@]2(O)CC[C@@H](C(=O)NCc3ccc(-n4cccn4)nc3)C2)c1 [Compound 103] |
| < 10 nM | < 10 nM | Cc1cc(Nc2cc(C3CC3)[nH]n2)nc([C@@]2(O)CC[C@H](C(=O)NCc3ccc(-n4cc(F)cn4)nc3)C2)c1 [Compound 127] |
| < 10 nM | < 10 nM | Cc1cc([C@@H]2CC[C@@](C)(C(=O)N[C@@H](C)c3ccc(-n4cc(F)cn4)nc3)C2)nc(Nc2cc(C)[nH]n2)n1 (single isomer, unassigned) [Compound 116, (1R,3R or 1S,3S)—N—((S)-1-(6-(4-fluoro-1H-pyrazol-1-yl)pyridin-3-yl)ethyl)-1-methyl-3-(6-methyl-2-((5-methyl-1H-pyrazol-3-yl)amino)pyrimidin-4-yl)cyclopentane-1-carboxamide] |
